Several values for one entry are separate records, joined by “and”; a condition that tells them apart may be missing. Equal values may be shown once.
Key:
Test in all cases: KINOMEscan competition binding
Settings in all cases: compound 10.0 µM
LATS2 (human) = LATS2 (human) (UniProt Q9NRM7)
STK32C (human) = STK32C (human) (UniProt Q86UX6)
AKT2 (human) = AKT2 (human) (UniProt P31751)
CSNK1G2 (human) = CSNK1G2 (human) (UniProt P78368)
MINK1 (human) = MINK1 (human) (UniProt Q8N4C8)
RPS6KA1 KD1 (human) = RPS6KA1 KD1 (human) (UniProt Q15418)
BRSK1 (human) = BRSK1 (human) (UniProt Q8TDC3)
CDKL2 (human) = CDKL2 (human) (UniProt Q92772)
PIM3 (human) = PIM3 (human) (UniProt Q86V86)
PIP4K2C (human) = PIP4K2C (human) (UniProt Q8TBX8)
PKN2 (human) = PKN2 (human) (UniProt Q16513)
SRPK1 (human) = SRPK1 (human) (UniProt Q96SB4)
EPHA6 (human) = EPHA6 (human) (UniProt Q9UF33)
RIOK2 (human) = RIOK2 (human) (UniProt Q9BVS4)
PRPF4B (human) = PRPF4B (human) (UniProt Q13523)
FER (human) = FER (human) (UniProt P16591)
STK32A (human) = STK32A (human) (UniProt Q8WU08)
KDR (human) = KDR (human) (UniProt P35968)
CDK9 (human) = CDK9 (human) (UniProt P50750)
TIE1 (human) = TIE1 (human) (UniProt P35590)
RPS6KA5 KD2 (human) = RPS6KA5 KD2 (human) (UniProt O75582)
SNRK (human) = SNRK (human) (UniProt Q9NRH2)
EPHB4 (human) = EPHB4 (human) (UniProt P54760)
CSF1R (human) = CSF1R (human) (UniProt P07333)
STK25 (human) = STK25 (human) (UniProt O00506)
SIK2 (human) = SIK2 (human) (UniProt Q9H0K1)
TNK1 (human) = TNK1 (human) (UniProt Q13470)
ADCK4 (human) = ADCK4 (human) (UniProt Q96D53)
PIK3CG (human) = PIK3CG (human) (UniProt P48736)
SLK (human) = SLK (human) (UniProt Q9H2G2)
PIK3C2G (human) = PIK3C2G (human) (UniProt O75747)
OXSR1 (human) = OXSR1 (human) (UniProt O95747)
NIM1 (human) = NIM1 (human) (UniProt Q8IY84)
DYRK2 (human) = DYRK2 (human) (UniProt Q92630)
CSNK1E (human) = CSNK1E (human) (UniProt P49674)
ERBB2 (human) = ERBB2 (human) (UniProt P04626)
NEK9 (human) = NEK9 (human) (UniProt Q8TD19)
ZAP70 (human) = ZAP70 (human) (UniProt P43403)
CAMK2B (human) = CAMK2B (human) (UniProt Q13554)
MAP4K4 (human) = MAP4K4 (human) (UniProt O95819)

Chain of STK25 (human) (O00506 whole entry, looked up): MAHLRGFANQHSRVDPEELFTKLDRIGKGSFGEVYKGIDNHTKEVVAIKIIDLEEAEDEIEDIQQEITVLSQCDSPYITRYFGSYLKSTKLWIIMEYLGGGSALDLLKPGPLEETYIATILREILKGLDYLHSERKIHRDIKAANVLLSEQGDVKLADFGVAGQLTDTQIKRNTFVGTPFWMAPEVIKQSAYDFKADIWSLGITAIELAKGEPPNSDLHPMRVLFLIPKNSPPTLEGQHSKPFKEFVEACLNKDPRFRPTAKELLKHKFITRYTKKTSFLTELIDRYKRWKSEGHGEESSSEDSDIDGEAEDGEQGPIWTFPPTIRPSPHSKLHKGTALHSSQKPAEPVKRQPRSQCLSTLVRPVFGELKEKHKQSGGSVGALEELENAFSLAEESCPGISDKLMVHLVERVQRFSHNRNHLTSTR
Chain of PIK3C2G (human) (O75747 whole entry, looked up): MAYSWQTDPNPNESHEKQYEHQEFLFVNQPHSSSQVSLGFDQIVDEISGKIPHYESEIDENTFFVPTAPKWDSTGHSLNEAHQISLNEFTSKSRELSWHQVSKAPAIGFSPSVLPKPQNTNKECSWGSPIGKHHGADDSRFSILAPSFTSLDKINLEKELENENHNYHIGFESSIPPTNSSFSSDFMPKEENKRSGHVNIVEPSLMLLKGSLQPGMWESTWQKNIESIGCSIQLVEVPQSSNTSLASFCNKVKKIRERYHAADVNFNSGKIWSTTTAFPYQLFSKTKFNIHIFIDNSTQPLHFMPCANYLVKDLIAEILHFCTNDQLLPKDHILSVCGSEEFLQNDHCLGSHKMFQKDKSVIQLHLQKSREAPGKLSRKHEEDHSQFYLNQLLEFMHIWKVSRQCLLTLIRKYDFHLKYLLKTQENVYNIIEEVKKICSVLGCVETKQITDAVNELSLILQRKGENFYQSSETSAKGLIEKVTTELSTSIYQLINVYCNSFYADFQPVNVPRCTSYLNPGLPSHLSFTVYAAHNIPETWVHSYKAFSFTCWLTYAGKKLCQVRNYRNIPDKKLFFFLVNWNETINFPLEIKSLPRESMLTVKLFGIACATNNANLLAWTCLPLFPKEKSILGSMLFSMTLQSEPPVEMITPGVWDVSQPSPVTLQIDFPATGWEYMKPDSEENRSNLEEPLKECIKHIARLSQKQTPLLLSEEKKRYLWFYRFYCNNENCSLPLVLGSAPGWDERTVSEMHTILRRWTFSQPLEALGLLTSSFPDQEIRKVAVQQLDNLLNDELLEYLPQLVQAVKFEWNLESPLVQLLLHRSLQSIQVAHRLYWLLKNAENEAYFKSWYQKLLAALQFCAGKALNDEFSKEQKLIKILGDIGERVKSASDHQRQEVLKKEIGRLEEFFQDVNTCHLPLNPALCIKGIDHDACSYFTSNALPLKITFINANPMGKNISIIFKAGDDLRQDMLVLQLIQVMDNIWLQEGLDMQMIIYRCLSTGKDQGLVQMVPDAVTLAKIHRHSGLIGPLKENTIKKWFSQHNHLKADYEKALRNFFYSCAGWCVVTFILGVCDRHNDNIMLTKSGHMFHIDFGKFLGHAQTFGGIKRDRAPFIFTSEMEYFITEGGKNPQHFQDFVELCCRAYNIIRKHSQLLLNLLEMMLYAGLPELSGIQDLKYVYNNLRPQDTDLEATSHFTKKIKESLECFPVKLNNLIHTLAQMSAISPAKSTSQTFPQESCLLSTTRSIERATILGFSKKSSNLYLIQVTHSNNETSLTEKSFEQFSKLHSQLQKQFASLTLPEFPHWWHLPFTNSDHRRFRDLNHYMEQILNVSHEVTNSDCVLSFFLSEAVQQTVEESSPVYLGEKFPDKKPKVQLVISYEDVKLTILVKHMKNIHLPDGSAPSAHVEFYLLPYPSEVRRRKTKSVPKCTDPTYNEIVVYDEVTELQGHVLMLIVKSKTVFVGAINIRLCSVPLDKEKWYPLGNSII
Chain of EPHB4 (human) (P54760 whole entry, looked up): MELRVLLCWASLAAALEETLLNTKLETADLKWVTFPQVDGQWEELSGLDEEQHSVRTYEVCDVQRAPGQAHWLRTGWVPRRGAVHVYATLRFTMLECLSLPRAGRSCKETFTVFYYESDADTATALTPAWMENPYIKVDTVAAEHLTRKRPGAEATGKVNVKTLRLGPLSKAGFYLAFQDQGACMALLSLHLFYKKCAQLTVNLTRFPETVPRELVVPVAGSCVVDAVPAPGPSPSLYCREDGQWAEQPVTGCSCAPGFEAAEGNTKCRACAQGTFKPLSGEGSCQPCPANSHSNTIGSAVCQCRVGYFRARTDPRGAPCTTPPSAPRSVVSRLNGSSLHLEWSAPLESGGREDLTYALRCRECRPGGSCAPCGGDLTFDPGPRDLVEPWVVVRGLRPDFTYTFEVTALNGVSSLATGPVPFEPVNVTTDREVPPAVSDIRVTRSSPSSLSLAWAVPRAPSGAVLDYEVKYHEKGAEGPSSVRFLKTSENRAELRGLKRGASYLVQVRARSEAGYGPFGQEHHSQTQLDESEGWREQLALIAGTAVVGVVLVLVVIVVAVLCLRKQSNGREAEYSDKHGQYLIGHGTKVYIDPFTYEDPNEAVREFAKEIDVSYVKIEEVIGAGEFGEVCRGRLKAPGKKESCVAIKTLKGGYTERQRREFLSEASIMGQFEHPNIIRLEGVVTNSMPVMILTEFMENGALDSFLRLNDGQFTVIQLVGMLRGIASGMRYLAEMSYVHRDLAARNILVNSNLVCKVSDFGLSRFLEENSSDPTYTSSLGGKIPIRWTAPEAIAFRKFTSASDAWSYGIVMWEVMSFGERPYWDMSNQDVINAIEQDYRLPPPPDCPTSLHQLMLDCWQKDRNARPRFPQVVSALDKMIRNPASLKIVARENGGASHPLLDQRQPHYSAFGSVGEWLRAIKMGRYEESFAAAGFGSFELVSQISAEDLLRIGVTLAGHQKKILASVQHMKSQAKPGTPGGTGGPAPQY
Chain of TNK1 (human) (Q13470 whole entry, looked up): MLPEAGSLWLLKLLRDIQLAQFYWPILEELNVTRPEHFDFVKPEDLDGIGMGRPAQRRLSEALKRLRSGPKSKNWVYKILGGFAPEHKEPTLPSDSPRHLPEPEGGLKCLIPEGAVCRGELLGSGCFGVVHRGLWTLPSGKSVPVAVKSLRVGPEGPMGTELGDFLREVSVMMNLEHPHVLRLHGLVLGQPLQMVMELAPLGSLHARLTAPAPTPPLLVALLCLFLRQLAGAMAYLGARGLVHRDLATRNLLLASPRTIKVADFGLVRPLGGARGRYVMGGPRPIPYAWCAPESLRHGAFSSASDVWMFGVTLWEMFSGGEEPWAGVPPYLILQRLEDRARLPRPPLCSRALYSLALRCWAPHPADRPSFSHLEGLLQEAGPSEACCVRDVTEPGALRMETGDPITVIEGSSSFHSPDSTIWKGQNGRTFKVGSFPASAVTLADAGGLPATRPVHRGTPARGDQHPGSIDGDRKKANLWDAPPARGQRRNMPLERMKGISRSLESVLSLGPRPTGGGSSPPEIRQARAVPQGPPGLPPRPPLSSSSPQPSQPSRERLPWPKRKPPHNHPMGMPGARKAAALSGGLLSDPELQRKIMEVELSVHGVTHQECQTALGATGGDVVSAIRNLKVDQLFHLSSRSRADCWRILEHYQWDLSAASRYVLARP
Chain of NEK9 (human) (Q8TD19 whole entry, looked up): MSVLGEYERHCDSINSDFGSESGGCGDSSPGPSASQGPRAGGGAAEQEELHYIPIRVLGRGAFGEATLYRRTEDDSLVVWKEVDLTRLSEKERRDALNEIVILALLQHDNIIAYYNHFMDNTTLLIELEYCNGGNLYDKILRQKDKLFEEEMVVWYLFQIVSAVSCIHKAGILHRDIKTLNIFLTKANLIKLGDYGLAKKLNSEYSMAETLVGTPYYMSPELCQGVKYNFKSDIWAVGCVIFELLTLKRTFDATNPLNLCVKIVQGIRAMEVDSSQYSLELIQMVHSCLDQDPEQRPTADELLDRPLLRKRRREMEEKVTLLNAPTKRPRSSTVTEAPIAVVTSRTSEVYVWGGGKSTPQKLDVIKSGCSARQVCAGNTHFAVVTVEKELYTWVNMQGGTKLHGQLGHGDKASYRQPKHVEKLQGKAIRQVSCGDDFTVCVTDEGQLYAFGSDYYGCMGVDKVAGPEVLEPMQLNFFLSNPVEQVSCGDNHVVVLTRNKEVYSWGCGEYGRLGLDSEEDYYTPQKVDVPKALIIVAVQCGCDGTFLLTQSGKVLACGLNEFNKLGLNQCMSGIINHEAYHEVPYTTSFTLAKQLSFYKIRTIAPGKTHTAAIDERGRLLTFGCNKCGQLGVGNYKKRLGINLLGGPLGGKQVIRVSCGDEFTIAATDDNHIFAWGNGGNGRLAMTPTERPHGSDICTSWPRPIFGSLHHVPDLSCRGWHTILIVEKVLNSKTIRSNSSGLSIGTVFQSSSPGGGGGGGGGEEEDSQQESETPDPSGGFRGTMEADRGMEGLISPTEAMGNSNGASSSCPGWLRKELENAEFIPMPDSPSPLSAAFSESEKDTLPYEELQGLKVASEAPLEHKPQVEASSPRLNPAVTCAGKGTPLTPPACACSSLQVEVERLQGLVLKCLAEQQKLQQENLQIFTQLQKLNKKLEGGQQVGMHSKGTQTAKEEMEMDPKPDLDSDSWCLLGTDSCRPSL
Chain of STK32A (human) (Q8WU08 whole entry, looked up): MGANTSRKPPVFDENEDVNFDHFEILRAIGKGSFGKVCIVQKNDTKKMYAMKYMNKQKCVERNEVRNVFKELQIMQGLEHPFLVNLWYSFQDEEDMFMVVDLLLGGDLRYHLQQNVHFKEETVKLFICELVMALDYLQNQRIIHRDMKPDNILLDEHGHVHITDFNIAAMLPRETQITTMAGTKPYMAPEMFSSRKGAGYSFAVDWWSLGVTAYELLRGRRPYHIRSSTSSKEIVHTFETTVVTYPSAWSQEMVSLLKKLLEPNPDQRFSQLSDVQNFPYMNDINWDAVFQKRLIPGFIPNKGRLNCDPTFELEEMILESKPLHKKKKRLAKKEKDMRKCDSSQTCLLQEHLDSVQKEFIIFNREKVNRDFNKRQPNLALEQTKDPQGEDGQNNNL

Row | SMILES | kinase still bound, per cent of control (LATS2 (human)) [%] | kinase still bound, per cent of control (STK32C (human)) [%] | kinase still bound, per cent of control (CSNK1G2 (human)) [%] | kinase still bound, per cent of control (MINK1 (human)) [%] | kinase still bound, per cent of control (RPS6KA1 KD1 (human)) [%] | kinase still bound, per cent of control (BRSK1 (human)) [%] | kinase still bound, per cent of control (CDKL2 (human)) [%] | kinase still bound, per cent of control (PIM3 (human)) [%] | kinase still bound, per cent of control (PIP4K2C (human)) [%] | kinase still bound, per cent of control (PKN2 (human)) [%] | kinase still bound, per cent of control (EPHA6 (human)) [%] | kinase still bound, per cent of control (RIOK2 (human)) [%] | kinase still bound, per cent of control (PRPF4B (human)) [%] | kinase still bound, per cent of control (FER (human)) [%] | kinase still bound, per cent of control (STK32A (human)) [%] | kinase still bound, per cent of control (CDK9 (human)) [%] | kinase still bound, per cent of control (RPS6KA5 KD2 (human)) [%] | kinase still bound, per cent of control (SNRK (human)) [%] | kinase still bound, per cent of control (EPHB4 (human)) [%] | kinase still bound, per cent of control (CSF1R (human)) | also measured
1 | COc1cc2c(Nc3ccc(NC(=O)c4ccccc4)cc3)ncnc2cc1OCCCN1CCOCC1 | 82 | 100 | 100 | 33 | 72 | 79 | 12 | 100 | 53 | 100 | 85 | 100 | 97 | 65 | 96 | 100 | 100 | 81 | 100 | 16% | kinase still bound, per cent of control (AKT2 (human)): 100%; kinase still bound, per cent of control (SRPK1 (human)): 100%; kinase still bound, per cent of control (KDR (human)): 26%; kinase still bound, per cent of control (TIE1 (human)): 27%; kinase still bound, per cent of control (STK25 (human)): 63%; kinase still bound, per cent of control (SIK2 (human)): 63%; kinase still bound, per cent of control (TNK1 (human)): 69%; kinase still bound, per cent of control (ADCK4 (human)): 66%; kinase still bound, per cent of control (PIK3CG (human)): 100%; kinase still bound, per cent of control (SLK (human)): 0.95%; kinase still bound, per cent of control (PIK3C2G (human)): 14%; kinase still bound, per cent of control (OXSR1 (human)): 100%; kinase still bound, per cent of control (NIM1 (human)): 100%; kinase still bound, per cent of control (DYRK2 (human)): 91%; kinase still bound, per cent of control (CSNK1E (human)): 80%; kinase still bound, per cent of control (ERBB2 (human)): 0%; kinase still bound, per cent of control (NEK9 (human)): 100%; kinase still bound, per cent of control (ZAP70 (human)): 100%; kinase still bound, per cent of control (CAMK2B (human)): 78%
2 | COc1cc2ncnc(Nc3cccc(Cl)c3)c2cc1OC | 40 | 100 | 83 | 37 | 93 | 37 | 84 | 54 | 31 | 59 | 11 | 43 | 84 | 82 | 63 | 100 | 67 | 71 | 38 | 72% and 91% | kinase still bound, per cent of control (AKT2 (human)): 100%; kinase still bound, per cent of control (SRPK1 (human)): 67%; kinase still bound, per cent of control (KDR (human)): 31%; kinase still bound, per cent of control (TIE1 (human)): 71%; kinase still bound, per cent of control (STK25 (human)): 77%; kinase still bound, per cent of control (SIK2 (human)): 67%; kinase still bound, per cent of control (TNK1 (human)): 26%; kinase still bound, per cent of control (ADCK4 (human)): 28%; kinase still bound, per cent of control (PIK3CG (human)): 44%; kinase still bound, per cent of control (SLK (human)): 2%; kinase still bound, per cent of control (PIK3C2G (human)): 43%; kinase still bound, per cent of control (OXSR1 (human)): 71%; kinase still bound, per cent of control (NIM1 (human)): 77%; kinase still bound, per cent of control (DYRK2 (human)): 27%; kinase still bound, per cent of control (CSNK1E (human)): 32%; kinase still bound, per cent of control (ERBB2 (human)): 0.3%; kinase still bound, per cent of control (NEK9 (human)): 78%; kinase still bound, per cent of control (ZAP70 (human)): 78%; kinase still bound, per cent of control (CAMK2B (human)): 95%
3 | CC(=O)c1c(C)c2cnc(Nc3ccc(N4CCNCC4)cn3)nc2n(C2CCCC2)c1=O | 42 | 94 | 92 | 7.6 | 12 | 68 | 6.8 | 82 | 1 | 48 | 96 | 56 | 78 | 47 | 87 | 27 | 15 | 94 | 100 | 50% | kinase still bound, per cent of control (STK25 (human)): 34%; kinase still bound, per cent of control (SIK2 (human)): 63%; kinase still bound, per cent of control (TNK1 (human)): 61%; kinase still bound, per cent of control (ADCK4 (human)): 53%; kinase still bound, per cent of control (MAP4K4 (human)): 23%; kinase still bound, per cent of control (PIK3CG (human)): 6.8%; kinase still bound, per cent of control (PIK3C2G (human)): 20%; kinase still bound, per cent of control (OXSR1 (human)): 81%; kinase still bound, per cent of control (NIM1 (human)): 40%; kinase still bound, per cent of control (DYRK2 (human)): 5.5%; kinase still bound, per cent of control (CSNK1E (human)): 16%; kinase still bound, per cent of control (ERBB2 (human)): 79%; kinase still bound, per cent of control (NEK9 (human)): 76%; kinase still bound, per cent of control (ZAP70 (human)): 73%; kinase still bound, per cent of control (CAMK2B (human)): 4.4%
4 | CCN(CCO)CCCOc1ccc2c(Nc3cc(CC(=O)Nc4cccc(F)c4)[nH]n3)ncnc2c1 | 52 | 78 | 76 | 25 | 83 | 64 | 18 | 100 | 51 | 86 | 69 | 58 | 67 | 100 | 100 | 82 | 100 | 100 | 100 | 5% | kinase still bound, per cent of control (AKT2 (human)): 90%; kinase still bound, per cent of control (SRPK1 (human)): 100%; kinase still bound, per cent of control (KDR (human)): 2.7%; kinase still bound, per cent of control (STK25 (human)): 66%; kinase still bound, per cent of control (SIK2 (human)): 70%; kinase still bound, per cent of control (TNK1 (human)): 86%; kinase still bound, per cent of control (ADCK4 (human)): 83%; kinase still bound, per cent of control (MAP4K4 (human)): 98%; kinase still bound, per cent of control (PIK3CG (human)): 100%; kinase still bound, per cent of control (SLK (human)): 64%; kinase still bound, per cent of control (PIK3C2G (human)): 21%; kinase still bound, per cent of control (OXSR1 (human)): 100%; kinase still bound, per cent of control (NIM1 (human)): 97%; kinase still bound, per cent of control (DYRK2 (human)): 73%; kinase still bound, per cent of control (CSNK1E (human)): 100%; kinase still bound, per cent of control (ERBB2 (human)): 13%; kinase still bound, per cent of control (NEK9 (human)): 100%; kinase still bound, per cent of control (ZAP70 (human)): 84%; kinase still bound, per cent of control (CAMK2B (human)): 84%

Source: the kinase profiling compilation of Christmann-Franck et al. (2016)
